{"source": "patent US20120141384A1", "about": "“ANTIBACTERIAL CONJUGATED BORONIC ACIDS AND PHARMACEUTICAL COMPOSITIONS THEREOF” (priority 2008, published 2012)", "key": {"[1]": {"test_system": "Staphylococcus aureus (ATCC No. 6538)", "assay": "Antimicrobial efficacy (challenge) test, plate count", "type": "cell-based", "details": "for No. of Surviving Microorganisms CFU/g: 25° C., initial contamination 5.2 × 10^5 CFU/g; for antimicrobial effect in words: following one day of exposure", "protocol": "(§1) The purpose of this study was to assess the antimicrobial efficacy of 2-Formylphenyl boronic acid (FPB) aqueous solutions, in different concentrations of 10 mM, 20 mM and 40 mM. 2-FBP was obtained from Sigma Aldrich. Test Procedure: The test consisted of challenging the test solutions with specified microorganisms, storing the inoculated preparations at a prescribed temperature, removing the inoculated samples at specified intervals of time and counting the number of viable organisms in the withdrawn samples using a plate count procedure. The technical details were as follows: • The test was conducted in 20 g samples. • Each sample was separately inoculated by one of the test organisms. • The inoculated containers were incubated at 25° C. together with an uninoculated sample. • The inoculated container with P. acnes was incubated under anaerobic conditions at the same temperature. • The culture media for P. acnes was Brain Heart Infusion Agar instead of Tryptic Soy Agar. Formulations were challenged by introducing the following microorganisms: Staphylococcus aureus (ATCC No. 6538) Counting of microorganisms in the inoculated samples was performed 1, 2 and 7 days following inoculation. The number of colony-forming units (cfu/g) determined at each incubation time point was compared to the number of cfu/g measured in non-inoculated control samples of FPB solutions. Antimicrobial effectiveness results, expressed as colony forming units of surviving microorganisms in the FPB solutions (cfu/g), are detailed in Tables 1-3."}, "[2]": {"test_system": "Propionbacterium acnes ATCC 11827", "assay": "Antimicrobial efficacy (challenge) test, plate count, anaerobic incubation", "type": "cell-based", "details": "30 mM FPB aqueous solution, 25° C. anaerobic, initial contamination 4.1 × 10^5 CFU/g"}, "[3]": {"assay": "Solubility and compatibility of FPB in the carrier", "type": "physicochemical", "details": "for solubility in the carrier: 20 mM and 40 mM", "text": "The active agent FPB is soluble in the carrier."}, "[4]": {"test_system": "Escherichia coli (ATCC No. 8739)", "assay": "Antimicrobial efficacy (challenge) test, plate count", "type": "cell-based", "details": "for No. of Surviving Microorganisms CFU/g: 25° C., initial contamination 2.8 × 10^5 CFU/g; for antimicrobial effect in words: following one day of exposure", "protocol": "as §1, with “2-FBP” for “The purpose of this study was to assess the antimicrobial efficacy of 2-Formylphenyl boronic acid (FPB) aqueous solutions, in different concentrations of 10 mM, 20 mM and 40 mM. 2-FBP”, “Escherichia coli” for “Staphylococcus aureus”, “8739)” for “6538)”"}, "[5]": {"test_system": "Pseudomonas aeruginosa (ATCC No. 9027)", "assay": "Antimicrobial efficacy (challenge) test, plate count", "type": "cell-based", "details": "for No. of Surviving Microorganisms CFU/g: 25° C., initial contamination 4.3 × 10^6 CFU/g; for antimicrobial effect in words: following one day of exposure", "protocol": "as §1, with “2-FBP” for “The purpose of this study was to assess the antimicrobial efficacy of 2-Formylphenyl boronic acid (FPB) aqueous solutions, in different concentrations of 10 mM, 20 mM and 40 mM. 2-FBP”, “Pseudomonas aeruginosa” for “Staphylococcus aureus”, “9027)” for “6538)”"}, "[6]": {"test_system": "Staphylococcus aureus (ATCC No. 6538)", "assay": "Antimicrobial efficacy (challenge) test, plate count", "type": "cell-based", "details": "30 mM FPB aqueous solution, 25° C., initial contamination 5.2 × 10^5 CFU/g"}, "[7]": {"test_system": "Propionbacterium acnes ATCC 11827", "assay": "Antimicrobial efficacy (challenge) test, plate count, anaerobic incubation", "type": "cell-based", "details": "for No. of Surviving Microorganisms CFU/g: 25° C. anaerobic, initial contamination 4.1 × 10^5 CFU/g; for antimicrobial effect in words: following one day of exposure", "protocol": "as §1, with “Propionbacterium acnes ATCC 11827” for “Staphylococcus aureus (ATCC No. 6538)”"}, "[8]": {"assay": "Stability of 2-FBA under formulation conditions, amount by chromatography", "type": "physicochemical", "protocol": "2-Formylphenyl Boronic Acid (2-FBA) was exposed to various formulation conditions, in order to assess its optimized formulation stability properties. The amount of 2-FBA was assessed prior to the experiment and following the exposure to the different conditions by chromatography. The conditions are detailed in the following Table."}, "[9]": {"details": "10 mM FPB aqueous solution, 1 week"}, "[10]": {"details": "10 mM FPB aqueous solution, 1 days"}, "[11]": {"details": "10 mM FPB aqueous solution, 2 days"}, "[12]": {"details": "20 mM FPB aqueous solution, 1 week"}, "[13]": {"details": "20 mM FPB aqueous solution, 1 days"}, "[14]": {"details": "20 mM FPB aqueous solution, 2 days"}, "[15]": {"details": "Solution 1 (10 mM FPB), within two days of exposure"}, "[16]": {"details": "solutions, concentrations of 10 mM, 20 mM and 40 mM"}}}
{"smiles": "O=Cc1ccccc1B(O)O", "note": "[FPB, 2-Formylphenyl boronic acid]", "values": [{"measurement": "No. of Surviving Microorganisms CFU/g", "setting": "[1]; [9]", "value": "<10", "unit": "CFU/g"}, {"measurement": "No. of Surviving Microorganisms CFU/g", "setting": "[1]; [10]", "value": "4.5 × 10^4 CFU/g"}, {"measurement": "No. of Surviving Microorganisms CFU/g", "setting": "[1]; [11]", "value": "5.4 × 10^2 CFU/g"}, {"measurement": "No. of Surviving Microorganisms CFU/g", "setting": "[1]; [12]", "value": "<10", "unit": "CFU/g"}, {"measurement": "No. of Surviving Microorganisms CFU/g", "setting": "[1]; [13]", "value": "<10", "unit": "CFU/g"}, {"measurement": "No. of Surviving Microorganisms CFU/g", "setting": "[1]; [14]", "value": "<10", "unit": "CFU/g"}, {"measurement": "log reduction of the count from the initial load", "setting": "[1]; [15]", "value": 2.0, "unit": "log"}, {"measurement": "antimicrobial effect in words", "setting": "[1]; Solution 2 (20 mM FBA)", "value": "completely eradicated"}, {"measurement": "antimicrobial effect in words", "setting": "[1]; Solution 3 (40 mM FBA)", "value": "completely eradicated"}, {"measurement": "effectiveness (conclusion)", "setting": "[1]; [16]", "value": "effective"}, {"measurement": "No. of Surviving Microorganisms CFU/g", "setting": "[2]; 1 week", "value": "<10", "unit": "CFU/g"}, {"measurement": "No. of Surviving Microorganisms CFU/g", "setting": "[2]; 1 days", "value": "<10", "unit": "CFU/g"}, {"measurement": "No. of Surviving Microorganisms CFU/g", "setting": "[2]; 2 days", "value": "<10", "unit": "CFU/g"}, {"measurement": "interference with foam formation", "setting": "[3]; emulsion carrier (Example 2)", "value": "does not interfere"}, {"measurement": "interference with the formation of an emulsion", "setting": "[3]; emulsion carrier (Example 2)", "value": "does not interfere"}, {"measurement": "solubility in the carrier", "setting": "[3]; emulsion carrier (Example 2)", "value": "soluble"}, {"measurement": "interference with foam formation", "setting": "[3]; gel carrier (Example 3)", "value": "does not interfere"}, {"measurement": "solubility in the carrier", "setting": "[3]; gel carrier (Example 3)", "value": "soluble"}, {"measurement": "No. of Surviving Microorganisms CFU/g", "setting": "[4]; [9]", "value": "<10", "unit": "CFU/g"}, {"measurement": "No. of Surviving Microorganisms CFU/g", "setting": "[4]; [10]", "value": "6.4 × 10^4 CFU/g"}, {"measurement": "No. of Surviving Microorganisms CFU/g", "setting": "[4]; [11]", "value": "<10", "unit": "CFU/g"}, {"measurement": "No. of Surviving Microorganisms CFU/g", "setting": "[4]; [12]", "value": "<10", "unit": "CFU/g"}, {"measurement": "No. of Surviving Microorganisms CFU/g", "setting": "[4]; [13]", "value": "7.6 × 10^3 CFU/g"}, {"measurement": "No. of Surviving Microorganisms CFU/g", "setting": "[4]; [14]", "value": "<10", "unit": "CFU/g"}, {"measurement": "No. of Surviving Microorganisms CFU/g", "setting": "[4]; 30 mM FPB aqueous solution, 1 week", "value": "<10", "unit": "CFU/g"}, {"measurement": "No. of Surviving Microorganisms CFU/g", "setting": "[4]; 30 mM FPB aqueous solution, 1 days", "value": "<10", "unit": "CFU/g"}, {"measurement": "No. of Surviving Microorganisms CFU/g", "setting": "[4]; 30 mM FPB aqueous solution, 2 days", "value": "<10", "unit": "CFU/g"}, {"measurement": "log reduction of the count from the initial load", "setting": "[4]; [15]", "value": 2.0, "unit": "log"}, {"measurement": "antimicrobial effect in words", "setting": "[4]; Solution 2 (20 mM FBA)", "value": "completely eradicated"}, {"measurement": "antimicrobial effect in words", "setting": "[4]; Solution 3 (40 mM FBA)", "value": "completely eradicated"}, {"measurement": "effectiveness (conclusion)", "setting": "[4]; [16]", "value": "effective"}, {"measurement": "No. of Surviving Microorganisms CFU/g", "setting": "[5]; [9]", "value": "<10", "unit": "CFU/g"}, {"measurement": "No. of Surviving Microorganisms CFU/g", "setting": "[5]; [10]", "value": "4.3 × 10^4 CFU/g"}, {"measurement": "No. of Surviving Microorganisms CFU/g", "setting": "[5]; [11]", "value": "5.0 × 10^1 CFU/g"}, {"measurement": "No. of Surviving Microorganisms CFU/g", "setting": "[5]; [12]", "value": "<10", "unit": "CFU/g"}, {"measurement": "No. of Surviving Microorganisms CFU/g", "setting": "[5]; [13]", "value": "<10", "unit": "CFU/g"}, {"measurement": "No. of Surviving Microorganisms CFU/g", "setting": "[5]; [14]", "value": "<10", "unit": "CFU/g"}, {"measurement": "log reduction of the count from the initial load", "setting": "[5]; [15]", "value": 2.0, "unit": "log"}, {"measurement": "antimicrobial effect in words", "setting": "[5]; Solution 2 (20 mM FBA)", "value": "completely eradicated"}, {"measurement": "antimicrobial effect in words", "setting": "[5]; Solution 3 (40 mM FBA)", "value": "completely eradicated"}, {"measurement": "effectiveness (conclusion)", "setting": "[5]; [16]", "value": "effective"}, {"measurement": "No. of Surviving Microorganisms CFU/g", "setting": "[6]; 1 week", "value": "<10", "unit": "CFU/g"}, {"measurement": "No. of Surviving Microorganisms CFU/g", "setting": "[6]; 1 days", "value": "<10", "unit": "CFU/g"}, {"measurement": "No. of Surviving Microorganisms CFU/g", "setting": "[6]; 2 days", "value": "<10", "unit": "CFU/g"}, {"measurement": "No. of Surviving Microorganisms CFU/g", "setting": "[7]; [9]", "value": "<10", "unit": "CFU/g"}, {"measurement": "No. of Surviving Microorganisms CFU/g", "setting": "[7]; [10]", "value": "<10", "unit": "CFU/g"}, {"measurement": "No. of Surviving Microorganisms CFU/g", "setting": "[7]; [11]", "value": "<10", "unit": "CFU/g"}, {"measurement": "No. of Surviving Microorganisms CFU/g", "setting": "[7]; [12]", "value": "<10", "unit": "CFU/g"}, {"measurement": "No. of Surviving Microorganisms CFU/g", "setting": "[7]; [13]", "value": "<10", "unit": "CFU/g"}, {"measurement": "No. of Surviving Microorganisms CFU/g", "setting": "[7]; [14]", "value": "<10", "unit": "CFU/g"}, {"measurement": "antimicrobial effect in words", "setting": "[7]; Solution 1 (10 mM FPB)", "value": "completely destroyed"}, {"measurement": "antimicrobial effect in words", "setting": "[7]; Solution 2 (20 mM FBA)", "value": "completely eradicated"}, {"measurement": "antimicrobial effect in words", "setting": "[7]; Solution 3 (40 mM FBA)", "value": "completely eradicated"}, {"measurement": "effectiveness (conclusion)", "setting": "[7]; [16]", "value": "effective"}, {"measurement": "stability in words", "setting": "[8]; UV light", "value": "relatively stable"}, {"measurement": "stability in words", "setting": "[8]; heat", "value": "relatively stable"}, {"measurement": "stability in words", "setting": "[8]; in the presence of H2O2", "value": "underwent degradation"}, {"measurement": "stability in words", "setting": "[8]; in the presence of HCl (0.1 N)", "value": "underwent degradation"}, {"measurement": "stability in words", "setting": "[8]; in the presence of NaOH (0.1 N)", "value": "relatively stable"}]}
